IC50 data for 10 compounds are collected here from patent publication USRE49080E1, “Glycoside derivatives and uses thereof” (Novartis AG, priority 2009, dated 2022).

The target of assay [1] is human sodium glucose co-transporter 2 (Homo sapiens (Human), UniProt P31639). Put plainly: SGLT-2 assay: 14C-AMG uptake in CHO-hSGLT2 or HEK-hSGLT2 cells. As to conditions: n = 1-4, cells stably transfected with hSGLT2, read-out: SGLT2 IC50 nM (n = 1-4). It is filed as cell-based. How it is done:
These cell lines transport 14 C-labelled alpha-methyl-glucopyranoside (14 C-AMG, Amersham) into the interior of the cell in sodium-dependent manner.
(§1) The SGLT-2 assay is carried out as follows: CHO-hSGLT2 cells are cultivated in Ham's F12 Medium (BioWhittaker) with 10% foetal calf serum and 250 μg/mL zeocin (Invitrogen), and HEK293-hSGLT2 cells are cultivated in DMEM medium with 10% foetal calf serum and 250 μg/mL zeocin (Invitrogen). The cells are detached from the culture flasks by washing twice with PBS and subsequently treating with trypsin/EDTA. After the addition of cell culture medium the cells are centrifuged, resuspended in culture medium and counted in a Casy cell counter. Then 40,000 cells per well are seeded into a white, 96-well plate coated with poly-D-lysine and incubated overnight at 37° C., 5% CO2. The cells are washed twice with 250 μl of assay buffer (Hanks Balanced Salt Solution, 137 mM NaCl, 5.4 mM KCl, 2.8 mM CaCl2, 1.2 mM MgSO4 and 10 mM HEPES (pH 7.4), 50 μg/mL of gentamycin). 250 μl of assay buffer and 5 μl of test compound are then added to each well and the plate is incubated for a further 15 minutes in the incubator. 5 μl of 10% DMSO are used as the negative control. The reaction is started by adding 5 μl of 14 C-AMG (0.05 μCi) to each well. After 2 hours' incubation at 37° C., 5% CO2, the cells are washed again with 250 μl of PBS […] and then lysed by the addition of 25 μl of 0.1 N NaOH (5 min. at 37° C.). 200 μl of MicroScint20 (Packard) are added to each well and incubation is continued for a further 20 min at 37° C. After this incubation the radioactivity of the 14 C-AMG absorbed is measured in a Topcount (Packard) using a 14 C scintillation program.

A further assay deals with human SGLT1 (Homo sapiens (Human), UniProt P13866). The experiment in a line: SGLT1 assay: analogous test with hSGLT1 cDNA expressed in CHO-K1 or HEK293 cells. Conditions: n = 1-4; 14C-AMG uptake, cells expressing hSGLT1. It counts as cell-based. The protocol: as §1
human SGLT1, sequence (P13866 whole entry): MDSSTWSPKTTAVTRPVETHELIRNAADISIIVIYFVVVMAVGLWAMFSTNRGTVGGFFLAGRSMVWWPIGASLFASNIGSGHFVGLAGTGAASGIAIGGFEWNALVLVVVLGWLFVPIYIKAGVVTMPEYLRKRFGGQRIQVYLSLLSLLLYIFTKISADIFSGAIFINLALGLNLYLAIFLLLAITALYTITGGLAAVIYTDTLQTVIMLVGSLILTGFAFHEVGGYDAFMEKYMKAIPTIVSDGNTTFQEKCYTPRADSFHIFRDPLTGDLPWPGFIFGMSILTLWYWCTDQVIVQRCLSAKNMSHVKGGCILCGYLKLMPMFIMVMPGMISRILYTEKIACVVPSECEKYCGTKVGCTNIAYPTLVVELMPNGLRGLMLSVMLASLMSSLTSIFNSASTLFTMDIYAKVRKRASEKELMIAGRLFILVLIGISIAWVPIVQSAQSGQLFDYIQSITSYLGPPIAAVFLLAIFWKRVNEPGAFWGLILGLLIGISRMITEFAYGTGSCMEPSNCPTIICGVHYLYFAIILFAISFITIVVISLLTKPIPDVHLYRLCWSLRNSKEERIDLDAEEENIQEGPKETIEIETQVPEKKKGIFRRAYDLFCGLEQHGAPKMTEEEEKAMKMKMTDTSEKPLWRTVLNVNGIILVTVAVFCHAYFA
To determine the selectivity with respect to human SGLT1 an analogous test is set up in which the cDNA for hSGLTI (Genbank Ace. No. NM000343) instead of hSGLT2 cDNA is expressed in CHO-K1 or HEK293 cells.

human sodium glucose co-transporter 2, sequence (P31639 whole entry): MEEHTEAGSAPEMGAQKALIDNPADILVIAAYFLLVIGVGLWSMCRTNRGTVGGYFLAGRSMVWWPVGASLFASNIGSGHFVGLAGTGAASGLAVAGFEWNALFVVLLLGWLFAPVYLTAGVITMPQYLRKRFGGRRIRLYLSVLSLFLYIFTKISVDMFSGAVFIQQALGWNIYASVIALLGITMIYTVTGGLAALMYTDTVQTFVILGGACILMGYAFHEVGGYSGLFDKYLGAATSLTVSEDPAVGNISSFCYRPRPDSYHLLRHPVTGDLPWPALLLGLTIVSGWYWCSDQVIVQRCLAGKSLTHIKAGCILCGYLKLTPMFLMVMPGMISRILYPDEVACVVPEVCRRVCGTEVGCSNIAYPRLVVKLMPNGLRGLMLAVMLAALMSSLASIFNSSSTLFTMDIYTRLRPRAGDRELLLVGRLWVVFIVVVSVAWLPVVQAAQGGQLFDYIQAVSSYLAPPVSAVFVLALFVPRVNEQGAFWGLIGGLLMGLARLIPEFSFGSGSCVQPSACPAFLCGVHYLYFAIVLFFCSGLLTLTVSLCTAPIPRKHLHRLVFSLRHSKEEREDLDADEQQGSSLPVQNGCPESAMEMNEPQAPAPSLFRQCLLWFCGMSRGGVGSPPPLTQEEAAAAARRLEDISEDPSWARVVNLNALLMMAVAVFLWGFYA

In general, IC50 refers to the concentration needed to halve the response being measured. For `O=C1CCOc2ccc(Cc3cc([C@@H]4O[C@H](CO)[C@@H](O)[C@H](O)[C@H]4O)ccc3Cl)cc21` [Example 35, 6-[2-Chloro-5-((2S,3R,4R,5S,6R)-3,4,5-trihydroxy-6-hydroxymethyl-tetrahydro-pyran-2-yl)-benzyl]-chroman-4-one], the IC50 in assay [1] stood at 9.5 nM; against human SGLT1, 1100 nM.
In the case of `COc1ccc([C@@H]2O[C@H](CO)[C@@H](O)[C@H](O)[C@H]2O)cc1Cc1ccc2c(c1)CCC1(CCC1)O2` [Example 41, (2S,3R,4R,5S,6R)-2-[4-methoxy-3-(spiro[chromane-2,1′-cyclobutane]-6-ylmethyl)phenyl]-6-(hydroxymethyl)tetrahydropyran-3,4,5-triol], the values for the IC50 (in assay [1]; against human SGLT1) were 16.2 nM and 1620 nM, respectively.
For `O=C1COc2cc(Cc3cc([C@@H]4O[C@H](CO)[C@@H](O)[C@H](O)[C@H]4O)ccc3Cl)ccc2N1` [Example 42, 7-[2-Chloro-5-((2S,3R,4R,5S,6R)-3,4,5-trihydroxy-6-hydroxymethyl-tetrahydro-pyran-2-yl)-benzyl]-4H-benzo[1,4]oxazin-3-one] the same measures were 0.35 nM and 105 nM.
For `COc1ccc([C@@H]2O[C@H](CO)[C@@H](O)[C@H](O)[C@H]2O)cc1Cc1ccc2c(c1)OCC(=O)N2` [Example 43, 7-[2-Methoxy-5-((2S,3R,4R,5S,6R)-3,4,5-trihydroxy-6-hydroxymethyl-tetrahydro-pyran-2-yl)-benzyl]-4H-benzo[1,4]oxazin-3-one] the same measures were 3.9 nM and 59 nM.
On to `CC1(C)Oc2ccc(Cc3cc([C@@H]4O[C@H](CO)[C@@H](O)[C@H](O)[C@H]4O)ccc3Cl)cc2NC1=O` [Example 46, 6-[2-Chloro-5-((2S,3R,4R,5S,6R)-3,4,5-trihydroxy-6-hydroxymethyl-tetrahydro-pyran-2-yl)-benzyl]-2,2-dimethyl-4H-benzo[1,4]oxazin-3-one], for which the IC50 in assay [1] was 14 nM; at human SGLT1, greater than 3900 nM.
Turning to `O=C1COc2ccc(Cc3cc([C@@H]4O[C@H](CO)[C@@H](O)[C@H](O)[C@H]4O)ccc3Cl)cc2N1` [Example 47, 6-(2-chloro-5-((2S,3R,4R,5S,6R)-3,4,5-trihydroxy-6-(hydroxymethyl)tetrahydro-2H-pyran-2-yl)benzyl)-2H-benzo[b][1,4]oxazin-3(4H)-one], the IC50 in assay [1] was 16.5 nM; against human SGLT1, greater than 3200 nM.
Turning to `OC[C@H]1O[C@@H](c2ccc(C3CC3)c(Cc3ccc4c(c3)NCCO4)c2)[C@H](O)[C@@H](O)[C@@H]1O` [Example 65, (2S,3R,4R,5S,6R)-2-[4-Cyclopropyl-3-(3,4-dihydro-2H-benzo[1,4]oxazin-6-ylmethyl)-phenyl]-6-hydroxymethyl-tetrahydro-pyran-3,4,5-triol], the IC50 is 2.7 nM in assay [1] and 170 nM on human SGLT1.
For `CCc1ccc([C@@H]2O[C@H](CO)[C@@H](O)[C@H](O)[C@H]2O)cc1Cc1ccc2c(c1)NCCO2` [Example 66, (2S,3R,4R,5S,6R)-2-[3-(3,4-Dihydro-2H-benzo[1,4]oxazin-6-ylmethyl)-4-ethyl-phenyl]-6-hydroxymethyl-tetrahydro-pyran-3,4,5-triol] the same measures were 0.9 nM and 100 nM.
As to `CC(C)c1ccc([C@@H]2O[C@H](CO)[C@@H](O)[C@H](O)[C@H]2O)cc1Cc1ccc2c(c1)NCCO2` [Example 69, (2S,3R,4R,5S,6R)-2-[3-(3,4-Dihydro-2H-benzo[1,4]oxazin-6-ylmethyl)-4-isopropyl-phenyl]-6-hydroxymethyl-tetrahydro-pyran-3,4,5-triol], the IC50 in assay [1] is 1.2 nM; against human SGLT1 it was 37 nM.
As for `CC(C)c1ccc([C@@H]2O[C@H](CO)[C@@H](O)[C@H](O)[C@H]2O)cc1Cc1ccc2c(c1)NCCC2` [Example 71, (2R,3S,4R,5R,6S)-2-Hydroxymethyl-6-[4-isopropyl-3-(1,2,3,4-tetrahydro-quinolin-7-ylmethyl)-phenyl]-tetrahydro-pyran-3,4,5-triol], the IC50 in assay [1] was 1.5 nM; against human SGLT1, 19 nM.
